# From PubChem BioAssay AID504646 (Southern Research Specialized Biocontainment Screening …, 2011)
# Values joined by “and” are separate entries in the source; they are usually repeats but may differ in a detail not shown here. Equal values may be shown once. Peptide text beside a SMILES is read from it. * marks the point of attachment. Cbz = O=C(OCc1ccccc1)*
# Tested on: Mycobacterium tuberculosis growth in 7H9 media
# Assay: M. tuberculosis growth inhibition in 7H9, dose response, 7H9 media, purified and synthesized samples, set 3 (AID 504646)
# Settings: for IC90: 90% growth inhibition concentration
SMILES,IC50,IC90
Cc1ccc2ccc3ccc(C)nc3c2n1,0.18 µM,0.48 µM
O=C(NCC1COc2ccccc2O1)C1CCC(CNc2c(N3CCCCC3)c(=O)c2=O)CC1 (stereo unspecified),–,> 25 µM
O=C(/C=C/c1ccccc1)N1CCN(CCN2C(=O)c3cccc4cccc(c34)C2=O)CC1,2.16 µM,4.97 µM
Nc1c(C(=O)NC2CCCCC2)nsc1C(=O)OCC(=O)NC1CCCCC1,1.11 µM,2.46 µM
Cc1ccc2c(c1)c(C1=c3ccccc3=NC1=O)c(O)n2C,0.84 µM,3.12 µM
COC(=O)C(C)Sc1ncnc2c1nnn2-c1ccc(F)cc1 (stereo unspecified),1.88 µM,4.64 µM
CC1CCN(C(=O)c2ccc(CNc3c(N4CCCC4)c(=O)c3=O)cc2)CC1,5.81 µM,6.65 µM
COc1ccc(N2CCN(C(=O)c3ccc(CNc4c(N5CCOCC5)c(=O)c4=O)cc3)CC2)cc1,2.16 µM,> 25 µM
CCOC1OC(=O)C(Cl)=C1Nc1ccccc1C (stereo unspecified),2.31 µM,> 25 µM
COc1cc(NC(=O)C/C(C)=N/NC(=O)c2ccccn2)c(OC)cc1Cl,1.65 µM,4.49 µM
O=C(NCC(c1cccs1)N1CCOCC1)c1cc([N+](=O)[O-])cc([N+](=O)[O-])c1 (stereo unspecified),0.21 µM,0.58 µM
CCOC(=O)CSc1ncnc2c1cnn2-c1ccccc1,11.2 µM,> 25 µM
O=C(c1ccc(CNc2c(N3CCCC3)c(=O)c2=O)cc1)N1CC=C(c2ccccc2)CC1,2.31 µM,> 25 µM
CC1CCCN(C(=O)c2ccc(CNc3c(N4CCCCC4)c(=O)c3=O)cc2)C1 (stereo unspecified),1.39 µM,> 25 µM
CCOC(=O)c1ccc(NC(=O)Cn2ncc(Cl)c(Cl)c2=O)cc1,0.33 µM,1.2 µM
CCOC(=O)COn1c2c(c3c4no[n+]([O-])c4ccc31)CCCC2,1.96 µM,3.17 µM
Cc1cc(C)n2nc(N)c(N=Nc3ccccc3)c2n1,2.73 µM,3.69 µM
Cc1ccc(NC(=O)COC(=O)CCc2c[nH]c3ccccc23)cc1[N+](=O)[O-],1.16 µM,4.23 µM
CCOC(=O)CSc1ncnc2c1cnn2-c1ccc(Cl)cc1,4.32 µM,> 25 µM
O=C(c1ccc(CNc2c(N3CCCC3)c(=O)c2=O)cc1)N1CCc2ccccc2C1,3.62 µM,5.79 µM
CC(=O)c1ccc(NC(=O)c2ccc(CNc3c(N4CCOCC4)c(=O)c3=O)cc2)cc1,12.4 µM,> 25 µM
COC(=O)C(C)Oc1ccc(-c2nccc(-c3ccccn3)n2)cc1 (stereo unspecified),2.11 µM,4.13 µM

SMILES,IC50,IC90
CC1CCCN(C(=O)C2CCC(CNc3c(N4CCCCC4)c(=O)c3=O)CC2)C1 (stereo unspecified),11.5 µM,> 25 µM
CC[N+](C)(CC)CCCCOc1ccc2c(c1)C(=O)c1cc(OCCCC[N+](C)(CC)CC)ccc1-2,1.42 µM,1.98 µM
CNc1nc(SCc2ccccc2Cl)nc2c1CCCC2,1.15 µM,3.01 µM
COC(=O)CCc1nc2c(C#N)c(-c3ccc(Cl)cc3)ccn2n1,2.58 µM,3.66 µM
CC(C)NC(=O)c1sc(=S)n2c1[nH]c(=O)c1ccc(C(=O)NCCc3ccc(Cl)cc3)cc12,0.11 µM,0.3 µM
O=C(c1ccc(CNc2c(N3CCOCC3)c(=O)c2=O)cc1)N1CC=C(c2ccccc2)CC1,0.66 µM,0.83 µM
CC(C)OC(=O)CSc1ncnc2c1cnn2-c1ccccc1,10.5 µM,> 25 µM
CCOC(=O)CSc1ncnc2c1cnn2-c1ccc(C)cc1C,4.63 µM,7.47 µM
O=C(CSc1nc2ccccc2c(=O)[nH]1)NCc1ccc(Cl)cc1,0.38 µM and 1.3 µM,0.67 µM and 2.02 µM
COC(=O)CSc1ncnc2c1cnn2-c1ccc(C)cc1C,4.72 µM,7.3 µM
CCOC(=O)CSc1ncnc2c1cnn2-c1ccc(C)cc1,6.95 µM,> 25 µM
O=C(CSc1nc2ccccc2c(=O)[nH]1)NC1CCCCC1,0.04 µM,0.08 µM
COC(=O)C1CC(=O)N(c2ccc(OCc3ccccc3Cl)cc2)C1 (stereo unspecified),0.47 µM,2.74 µM
Cc1nc(SCC(=O)NC2CCCCC2)[nH]c(=O)c1C,0.34 µM and 1.86 µM,0.83 µM and 3.17 µM
Cc1cccc(N2CCN(C(=O)c3ccc(CNc4c(N5CCC(C)CC5)c(=O)c4=O)cc3)CC2)c1C,24.5 µM,> 25 µM
Cc1cccc(/C=C/C(=O)c2ccc([N+](=O)[O-])o2)c1,0.1 µM,0.17 µM
CCOC(=O)CNC(=O)[C@H](Cc1ccccc1)NC(=O)OCc1ccccc1 (Cbz-Phe-Gly-OEt),1.06 µM,2.96 µM
Cc1ccc(NC(=O)C2C3/C=C\CCCCC32)cc1C (stereo unspecified),1.43 µM,> 25 µM
c1ccc(/N=C2\N=C(Nc3ccccn3)c3ccccc32)nc1,0.16 µM,0.25 µM
CCOC(=O)CSc1ncnc2c1nnn2-c1ccc(F)cc1,2.46 µM,4.35 µM
Cc1cc(Br)ccc1NC(=O)c1cnc(N2CCN(c3ccccn3)CC2)c2ccccc12,0.28 µM,2.61 µM
Cc1nc(SCC(=O)NC2CCCC2)[nH]c(=O)c1C,7.97 µM,13.4 µM

SMILES,IC50,IC90
CCc1ccc(/C=C2/C(=O)N(C)C(=S)N2CC(=O)OC)s1,1.12 µM,4.63 µM
COC(=O)C(C)Oc1ccc(Cc2ncc(C(F)(F)F)cc2Cl)cc1 (stereo unspecified),2.66 µM,4.35 µM
O=C(/C=C\c1cccs1)N1CCN(Cc2ccc3c(c2)OCO3)CC1,0.94 µM,> 25 µM
CCOc1ccc(NC(=O)CSc2nc(O)c(C)c(=O)n2-c2ccc(F)cc2)cc1,18.6 µM,> 25 µM
CCc1c(C)nc(SCC(=O)Nc2ccc3c(c2)OCCO3)[nH]c1=O,14.1 µM,> 25 µM
O=C(NCCc1ccc(Cl)cc1)c1ccc(CNc2c(N3CCOCC3)c(=O)c2=O)cc1,4.71 µM,6.88 µM
O=C(NCCc1ccc(Cl)cc1)C1CCC(CNc2c(N3CCCCC3)c(=O)c2=O)CC1 (stereo unspecified),20.4 µM,> 25 µM
CC(C)CCNC(=O)CSc1nc2ccccc2c(=O)[nH]1,1.19 µM,2.35 µM
CCC(C)Nc1ccc(NC(C)CC)cc1 (stereo unspecified),0.61 µM,0.98 µM
CCOC(=O)C(C)Sc1ncnc2c1nnn2-c1ccc(F)cc1 (stereo unspecified),0.85 µM and 3.12 µM,3.42 µM and 8.23 µM
COC(=O)c1cc(=O)n(-c2ccc(F)cc2)c(=Nc2ccc(F)cc2)s1,0.36 µM,1.18 µM
O=C1C(Br)=Cc2cccc3cccc1c23,0.16 µM,0.79 µM
CC1CC(C)CN(C(=O)C2CCC(CNc3c(N4CCCCC4)c(=O)c3=O)CC2)C1 (stereo unspecified),7.76 µM,> 25 µM
O=C(CSc1nc2c(c(=O)[nH]1)CCC2)Nc1ccc(F)cc1,10 µM,17.1 µM
Cc1ccc(C(=O)N/N=C(/CC(=O)c2cccs2)C(F)(F)F)cc1,1.56 µM,2.37 µM
COc1ccc(-n2nnc3c(SCC(=O)OCc4ccccc4)ncnc32)cc1,1.63 µM,> 25 µM
O=C(c1ccc(CNc2c(N3CCCC3)c(=O)c2=O)cc1)N1CCN(C2CCCCC2)CC1,–,> 25 µM
Cc1nn2c(NCc3ccccn3)cc(C(C)C)nc2c1-c1ccccc1,1.22 µM,1.73 µM
Cc1cccc(-c2oc3ccc(-c4ccc5c(c4)OCO5)cc3c2C#Cc2cncn2C)c1,1.78 µM,2.69 µM
CCC(Sc1ncnc2c1nnn2-c1ccc(F)cc1)C(=O)OC (stereo unspecified),9.59 µM,> 25 µM
